Laboratory results: US10738056B2 (Aduro BioTech, Inc., priority 2017, dated 2020)
Read-outs that look alike come from different tables or passages of the source.

Experiments:
[1] = target: Human cGAS amino acids 155-522 (Homo sapiens (Human), UniProt Q8N884); assay: cGAS biochemical activity assay (ATP remaining, Kinase-Glo Max luminescence); settings: human cGAS 155-522, ATP remaining (Kinase-Glo Max); read-out: cGAS IC50
[2] = test system: cGAS/STING pathway in THP1 cells; assay: THP1 cell-based cGAS/STING pathway activity assay (IRF-3-linked luciferase reporter)
Method in brief: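 THP1 cells carrying an IRF-3-driven luciferase reporter were read across a range of compound concentrations, and IC50 values were derived from these concentration responses; the assay upper limit was 100 μM.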

Sequence of Human cGAS amino acids 155-522 (Q8N884 157-522): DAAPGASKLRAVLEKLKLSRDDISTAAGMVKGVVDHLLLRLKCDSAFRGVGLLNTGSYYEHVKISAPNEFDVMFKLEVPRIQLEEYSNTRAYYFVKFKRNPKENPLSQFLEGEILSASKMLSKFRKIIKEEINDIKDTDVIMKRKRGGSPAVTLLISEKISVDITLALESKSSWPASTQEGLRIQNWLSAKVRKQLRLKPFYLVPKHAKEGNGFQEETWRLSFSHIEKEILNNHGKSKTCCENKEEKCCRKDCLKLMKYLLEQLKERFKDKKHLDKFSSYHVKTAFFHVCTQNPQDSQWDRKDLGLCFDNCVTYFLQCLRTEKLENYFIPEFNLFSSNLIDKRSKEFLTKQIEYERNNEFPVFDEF

Row | SMILES | IC50 [1] | IC50 ([2]; Homo sapiens, THP-1) | IC50 ([2]; read-out: THP-1 IC50)
1 | COc1cccc(NC(=O)c2c(C)[nH]c3c(-c4ccccc4)c(C(F)(F)F)nn3c2=O)c1F [Compound A1136, N-(2-fluoro-3-methoxyphenyl)-5-methyl-7-oxo-3-phenyl-2-(trifluoromethyl)-4,7-dihydropyrazolo[1,5-a]pyrimidine-6-carboxamide] | < 20 µM | 20 to 100 µM | 
2 | Cc1[nH]c2c(-c3ccccc3)c(C(F)(F)F)nn2c(=O)c1-c1nc2c(OCC(N)=O)cccc2o1 [Compound C1122, 2-((2-(5-methyl-7-oxo-3-phenyl-2-(trifluoromethyl)-4,7-dihydropyrazolo[1,5-a]pyrimidin-6-yl)benzo[d]oxazol-4-yl)oxy)acetamide] | < 20 µM | 20 to 100 µM | 
3 | Cc1[nH]c2c(-c3ccccc3)c(C(F)(F)F)nn2c(=O)c1C(=O)NS(=O)(=O)c1cccc(C#N)c1 [Compound A1128, N-((3-cyanophenyl)sulfonyl)-5-methyl-7-oxo-3-phenyl-2-(trifluoromethyl)-4,7-dihydropyrazolo[1,5-a]pyrimidine-6-carboxamide] | < 20 µM | > 100 µM | 
4 | Cc1[nH]c2c(-c3ccccc3)c(C(F)(F)F)nn2c(=O)c1-c1nc2ccc(N)cc2o1 [Compound C1156, 6-(6-aminobenzo[d]oxazol-2-yl)-5-methyl-3-phenyl-2-(trifluoromethyl)pyrazolo[1,5-a]pyrimidin-7(4H)-one] | < 20 µM | 20 to 100 µM | 
5 | COc1cccc2oc(-c3c[nH]c4c(-c5ccccc5)c(C(F)(F)F)nn4c3=O)nc12 [Compound C1079, 6-(4-methoxybenzo[d]oxazol-2-yl)-3-phenyl-2-(trifluoromethyl)pyrazolo[1,5-a]pyrimidin-7(4H)-one] | > 250 µM | < 20 µM | 
6 | Cc1[nH]c2c(-c3ccccc3)c(C(F)(F)F)nn2c(=O)c1C(=O)Nc1ccccc1S(C)(=O)=O [Compound A1083, 5-methyl-N-(2-(methylsulfonyl)phenyl)-7-oxo-3-phenyl-2-(trifluoromethyl)-4,7-dihydropyrazolo[1,5-a]pyrimidine-6-carboxamide] | < 20 µM | > 100 µM | 
7 | COc1cccnc1NC(=O)c1c(C)[nH]c2c(-c3ccccc3)c(C(F)(F)F)nn2c1=O [Compound A1100, N-(3-methoxypyridin-2-yl)-5-methyl-7-oxo-3-phenyl-2-(trifluoromethyl)-4,7-dihydropyrazolo[1,5-a]pyrimidine-6-carboxamide] | < 20 µM | 20 to 100 µM | 
8 | Cc1[nH]c2c(-c3ccccc3)c(C(F)(F)F)nn2c(=O)c1C(=O)Nc1ccc(S(C)(=O)=O)nc1 [Compound A1113, 5-methyl-N-(6-(methylsulfonyl)pyridin-3-yl)-7-oxo-3-phenyl-2-(trifluoromethyl)-4,7-dihydropyrazolo[1,5-a]pyrimidine-6-carboxamide] | 20 to 250 µM | > 100 µM | 
9 | COC1CCCc2oc(-c3c(C)[nH]c4c(-c5ccccc5)c(C(F)(F)F)nn4c3=O)nc21 (stereo not shown) [Compound C1048, 6-(4-methoxy-4,5,6,7-tetrahydrobenzo[d]oxazol-2-yl)-5-methyl-3-phenyl-2-(trifluoromethyl)pyrazolo[1,5-a]pyrimidin-7(4H)-one] | < 20 µM | 20 to 100 µM | 
10 | COc1cc(C#N)cc2oc(-c3c(C)[nH]c4c(-c5ccccc5)c(C(F)(F)F)nn4c3=O)nc12 [Compound C1112, 4-methoxy-2-(5-methyl-7-oxo-3-phenyl-2-(trifluoromethyl)-4,7-dihydropyrazolo[1,5-a]pyrimidin-6-yl)benzo[d]oxazole-6-carbonitrile] | 20 to 250 µM | > 100 µM | 
11 | COc1cccc2nc(-c3c(C)[nH]c4c(-c5ccccc5)c(C(F)(F)F)nn4c3=O)n(C)c12 [Compound C1065, 6-(7-methoxy-1-methyl-1H-benzo[d]imidazol-2-yl)-5-methyl-3-phenyl-2-(trifluoromethyl)pyrazolo[1,5-a]pyrimidin-7(4H)-one] | 20 to 250 µM | > 100 µM | 
12 | Cc1[nH]c2c(-c3ccccc3)c(C(F)(F)F)nn2c(=O)c1C(=O)NS(=O)(=O)C1CCCCC1 [Compound A1124, N-(cyclohexylsulfonyl)-5-methyl-7-oxo-3-phenyl-2-(trifluoromethyl)-4,7-dihydropyrazolo[1,5-a]pyrimidine-6-carboxamide] | < 20 µM | > 100 µM | 
13 | Cc1[nH]c2c(-c3ccccc3)c(C(F)(F)F)nn2c(=O)c1-c1nc2ccccc2c(=O)[nH]1 [Compound C1019, 2-(5-methyl-7-oxo-3-phenyl-2-(trifluoromethyl)-4,7-dihydropyrazolo[1,5-a]pyrimidin-6-yl)quinazolin-4(3H)-one] | < 20 µM | 20 to 100 µM | 
14 | Cc1nnc(-c2c(C)[nH]c3c(-c4ccccc4)c(C(F)(F)F)nn3c2=O)[nH]1 [Compound C1020, 5-methyl-6-(5-methyl-4H-1,2,4-triazol-3-yl)-3-phenyl-2-(trifluoromethyl)pyrazolo[1,5-a]pyrimidin-7(4H)-one] | 20 to 250 µM | > 100 µM | 
15 | Cc1[nH]c2c(-c3ccccc3)c(C(F)(F)F)nn2c(=O)c1C(=O)Nc1cccc2c1OCC2 [Compound A1101, N-(2,3-dihydrobenzofuran-7-yl)-5-methyl-7-oxo-3-phenyl-2-(trifluoromethyl)-4,7-dihydropyrazolo[1,5-a]pyrimidine-6-carboxamide] | < 20 µM | < 20 µM | 
16 | CO[C@@H]1CCCC[C@H]1c1nnc(-c2c(C)[nH]c3c(-c4ccccc4)c(C(F)(F)F)nn3c2=O)o1 [D1046 Iso-3] | < 20 µM |  | > 100 µM
17 | COCCOc1cccc2oc(-c3c(C)[nH]c4c(-c5ccccc5)c(C(F)(F)F)nn4c3=O)nc12 [Compound C1041, 6-(4-(2-methoxyethoxy)benzo[d]oxazol-2-yl)-5-methyl-3-phenyl-2-(trifluoromethyl)pyrazolo[1,5-a]pyrimidin-7(4H)-one] | < 20 µM | < 20 µM | 
18 | COc1cccc2oc(-c3c(COCCO)[nH]c4c(-c5ccccc5)c(C(F)(F)F)nn4c3=O)nc12 [Compound C1226, 5-((2-hydroxyethoxy)methyl)-6-(4-methoxybenzo[d]oxazol-2-yl)-3-phenyl-2-(trifluoromethyl)pyrazolo[1,5-a]pyrimidin-7(4H)-one] | < 20 µM | 20 to 100 µM | 
19 | COc1cnccc1NC(=O)c1c(C)[nH]c2c(-c3ccccc3)c(C(F)(F)F)nn2c1=O [Compound A1099, N-(3-methoxypyridin-4-yl)-5-methyl-7-oxo-3-phenyl-2-(trifluoromethyl)-4,7-dihydropyrazolo[1,5-a]pyrimidine-6-carboxamide] | 20 to 250 µM | > 100 µM | 
20 | COc1c(Cl)ccc2oc(-c3c(C)[nH]c4c(-c5ccccc5)c(C#N)nn4c3=O)nc12 [Compound C1206, 6-(5-chloro-4-methoxybenzo[d]oxazol-2-yl)-5-methyl-7-oxo-3-phenyl-4,7-dihydropyrazolo[1,5-a]pyrimidine-2-carbonitrile] | < 20 µM | > 100 µM | 
21 | Cc1[nH]c2c(-c3ccccc3)c(C(F)(F)F)nn2c(=O)c1-c1nn(C(C)C)c(=O)o1 [Compound C1023, 3-isopropyl-5-(5-methyl-7-oxo-3-phenyl-2-(trifluoromethyl)-4,7-dihydropyrazolo[1,5-a]pyrimidin-6-yl)-1,3,4-oxadiazol-2(3H)-one] | < 20 µM | > 100 µM | 
22 | COc1cc(CO)cc2oc(-c3c(C)[nH]c4c(-c5ccccc5)c(C(F)(F)F)nn4c3=O)nc12 [Compound C1166, 6-(6-(hydroxymethyl)-4-methoxybenzo[d]oxazol-2-yl)-5-methyl-3-phenyl-2-(trifluoromethyl)pyrazolo[1,5-a]pyrimidin-7(4H)-one] | < 20 µM | 20 to 100 µM | 
23 | Cc1[nH]c2c(-c3ccccc3)c(C(F)(F)F)nn2c(=O)c1-c1nnc(NC(=N)N)o1 [Compound D1077, 1-(5-(5-methyl-7-oxo-3-phenyl-2-(trifluoromethyl)-4,7-dihydropyrazolo[1,5-a]pyrimidin-6-yl)-1,3,4-oxadiazol-2-yl)guanidine] | < 20 µM | > 100 µM | 
24 | Cc1nn2c(=O)c(-c3nnc(C4CCCOC4)o3)c(C)[nH]c2c1-c1ccccc1 (stereo not shown) [Compound D1030, 2,5-dimethyl-3-phenyl-6-(5-(tetrahydro-2H-pyran-3-yl)-1,3,4-oxadiazol-2-yl)pyrazolo[1,5-a]pyrimidin-7(4H)-one] | < 20 µM | > 100 µM | 
25 | Cc1[nH]c2c(-c3ccccc3)c(C(F)(F)F)nn2c(=O)c1-c1nc2c(OC(C)C)cccc2o1 [Compound C1039, 6-(4-isopropoxybenzo[d]oxazol-2-yl)-5-methyl-3-phenyl-2-(trifluoromethyl)pyrazolo[1,5-a]pyrimidin-7(4H)-one] | < 20 µM | > 100 µM | 
26 | Cc1[nH]c2c(-c3ccccc3)c(C(F)(F)F)nn2c(=O)c1C(=O)Nc1cc(C)n(C)n1 [Compound A1079, N-(1,5-dimethyl-1H-pyrazol-3-yl)-5-methyl-7-oxo-3-phenyl-2-(trifluoromethyl)-4,7-dihydropyrazolo[1,5-a]pyrimidine-6-carboxamide] | < 20 µM | > 100 µM | 
27 | COc1c(C)ccc2oc(-c3c(C)[nH]c4c(-c5ccccc5)c(C(F)(F)F)nn4c3=O)nc12 [Compound C1093, 6-(4-methoxy-5-methylbenzo[d]oxazol-2-yl)-5-methyl-3-phenyl-2-(trifluoromethyl)pyrazolo[1,5-a]pyrimidin-7(4H)-one] | < 20 µM | 20 to 100 µM | 
28 | COc1cccc(NC(=O)Cc2c(C)[nH]c3c(-c4ccccc4)c(C(F)(F)F)nn3c2=O)c1 [Compound B1011, N-(3-methoxyphenyl)-2-(5-methyl-7-oxo-3-phenyl-2-(trifluoromethyl)-4,7-dihydropyrazolo[1,5-a]pyrimidin-6-yl)acetamide] | 20 to 250 µM | 20 to 100 µM | 
29 | COc1cccc(NC(=O)c2c(C)[nH]c3c(-c4ccccc4)c(C(F)(F)F)nn3c2=O)c1 [Compound A1032, N-(3-methoxyphenyl)-5-methyl-7-oxo-3-phenyl-2-(trifluoromethyl)-4,7-dihydropyrazolo[1,5-a]pyrimidine-6-carboxamide] | < 20 µM | < 20 µM | 
